Data: patent publication US20230089368A1, “POLYAROMATIC UREA DERIVATIVES AND THEIR USE IN THE TREATMENT OF MUSCLE DISEASES” (ANAGENESIS BIOTECHNOLOGIES S.A.S., priority 2019, published 2023)

What was measured:
[1] = tested on: muscle progenitors (hMP) from DMD hiPSC or WT hiPSC; assay: Myotube assay: myogenic activity (total myotube area per well); format: cell-based, human; conditions: Homo sapiens, 72 h; myotube assay, compounds incubated 3 days; read-out: MA (normalized Myotube Area, efficacy)
Description: An in vitro assay for assessing the efficacy of compounds for use in treating, ameliorating, delaying, curing and/or preventing a disease or condition associated with muscle cells and/or satellite cells is described in example 78. Herein, the generation of myotubes and satellite cells after adding a compound to a myotube assay workflow is assessed. Said myotube assay workflow is derived from wild-type or DMD human induced pluripotent stem cells (WT hiPSC or DMD hiPSC). Before the addition of said compound, the assay comprises satellite-like cells, but no significant amount of myotubes.
(§1) The efficacy of said compound for use in treating, ameliorating, delaying, curing and/or preventing a disease or condition associated with muscle cells and/or satellite cells is positively correlated with the generation of myotubes (i.e. the increase of the area occupied by myotubes on the assay) and/or satellite cells (i.e. the increase of the number of satellite cells) in the assay after adding said compound. The generation of myotubes by the addition of said compound is expressed as the EC50 value, the concentration of said compound that corresponds with the half-maximal generation of myotubes, and the MA (normalized myotube area) value, the normalized area occupied by generated myotubes on the assay. […] Since muscle cells are formed from myotubes during myogenesis, the generation of myotubes in the assay is a good indicator of the ability of said compound to induce the formation of functional muscle cells in vivo. The number of satellite cells is measured as the percentage of Pax7 positive cells, relative to the total number of cells in the assay, as shown in FIG. 3. The percentage of Pax7 is a good indicator of the ability of said compound to induce the formation of satellite cells which are able to play a role in muscle repair and regeneration in vivo.
(§2) DMD human induced pluripotent stem cells (hereafter “DMD hiPSC”), generated from the NORM-1 hiPSC WT cell line by gene editing, or WT human induced pluripotent stem cells (hereafter “WT hiPSC”), being NORM-1 hiPSC wt cell line, have been differentiated according to Chal et al. 2015, 2016, to produce muscle progenitors (hereafter “hMP”). The hMP population contains satellite-like cells (i.e Pax7-positive cells) and satellite cells' progenies (i.e. Myogenin-positive cells).
(§3) FIG. 1 provides an example of a Myotube assay workflow. At day 0, hMP are thawed and 3.1 million cells are plated into a T75-flask coated with hESC-qualified Matrigel™ (Corning) in SkGM proliferating medium (PromoCells), supplemented with 5 μM Y-27632 (Tocris Bioscience). On day 2, SkGM proliferating medium is refreshed. On day 4, hMP are harvested and transferred into a 384-well plate coated with collagen type I at a density of 3500 cells/well in a DMEM-based medium, containing 5% of knockout serum replacement (Gibco), 1% PenStrep (Gibco), 1% MEM NEAA (Gibco) and 0.1 mM 2-mercaptoethanol (Gibco) (hereafter “K5 medium”) and 5 μM Y-27632. Compounds to be tested are then added in the medium and incubated for 3 days at 37° C. On day 7, cells are fixed and immunostained. For example, myotubes (alpha-actinin staining) and satellite-like (Pax7 staining) cells can be analyzed for total myotube area per well or Pax7-positive cell quantification.
(§4) DMD hMP were put in the Myotube assay according to the workflow described in Example 2.1. In particular, compound (i) was added at concentrations ranging from 1.5 nM to 30 μM, starting from day 4. hMP were cultivated for three more days in presence of compound (i), then fixed and analyzed for quantification of total myotube area per well. Duplicates of each condition were averaged.
Qualitative scale: ++++: EC50<500 nM; +++: 500 nM≤EC50<1000 nM; ++: 1000 nM≤EC50<5000 nM; +: EC50≥5000 nM; +++: MA≥75%; ++: 50%≤MA<75%; +: 25%≤MA<50%.

[2] = tested on: satellite-like cells (Pax7-positive cells) in hMP; assay: Myotube assay: Pax7-positive (satellite-like) cell quantification; format: cell-based, human; design: key to Pax7% (pool of Pax7-positive cells) / Pax7: −: Depletes the pool of cells, while positively affects the myotubes; +: Maintains or increases the pool of cells, with at least 1 of the highest concentration known to be cytotoxic; ++: Maintains or increases the pool of cells, without any toxicity; conditions: myotube assay, compounds incubated 3 days
From the text: as §1, §2, §3
as §4, with “percentage” for “quantification”, “Pax7-positive cells and nuclei number.” for “total myotube area per well.”
(−): Depletes the pool of cells, while positively affects the myotubes; (+): Maintains or increases the pool of cells, with at least 1 of the highest concentration known to be cytotoxic; and (++) Maintains or increases the pool of cells, without any toxicity.

SMILES	Emax [1]	Pax7% (pool of Pax7-positive cells) [2]
CSc1cc(Oc2ccnc3[nH]c(=O)cnc23)ccc1NC(=O)Nc1nc(C(C)(C)C)cs1 [(ca), 1-(4-(tert-butyl)thiazol-2-yl)-3-(2-(methylthio)-4-((3-oxo-3,4-dihydropyrido[2,3-b]pyrazin-8-yl)oxy)phenyl)urea]	≥ 75%	++
CSc1cc(Oc2ccnc3[nH]c(=O)cnc23)ccc1NC(=O)Nc1cc(C(C)(C)C)nn1-c1ccc(C)nc1 [(bd), 1-(3-(tert-butyl)-1-(6-methylpyridin-3-yl)-1H-pyrazol-5-yl)-3-(2-(methylthio)-4-((3-oxo-3,4-dihydropyrido[2,3-b]pyrazin-8-yl)oxy)phenyl)urea]	≥ 75%	+
CSc1cc(Oc2ccnc3c2OCC(=O)N3)ccc1NC(=O)Nc1cc(C(C)(C)C)nn1-c1ccccc1 [(ct), 1-(3-(tert-butyl)-1-phenyl-1H-pyrazol-5-yl)-3-(2-(methylthio)-4-((3-oxo-3,4-dihydro-2H-pyrido[3,2-b][1,4]oxazin-8-yl)oxy)phenyl)urea]	≥ 75%	+
CC(C)(C)c1cnc(NC(=O)Nc2ccc(Oc3ccnc4[nH]c(=O)cnc34)c3ccccc23)s1 [(ba), 1-(5-(tert-butyl)thiazol-2-yl)-3-(4-((3-oxo-3,4-dihydropyrido[2,3-b]pyrazin-8-yl)oxy)naphthalen-1-yl)urea]	≥ 75%	++
CSc1cc(NC(=O)Nc2cc(C(C)(C)C)nn2-c2ccccc2)ccc1Oc1ccnc2[nH]c(=O)cnc12 [(dn), 1-(3-(tert-butyl)-1-phenyl-1H-pyrazol-5-yl)-3-(3-(methylthio)-4-((3-oxo-3,4-dihydropyrido[2,3-b]pyrazin-8-yl)oxy)phenyl)urea]	≥ 75%	+
CSc1cc(Oc2ccnc(NC(=O)CN(C)C(=O)OC(C)(C)C)c2)ccc1NC(=O)Nc1cc(C(C)(C)C)nn1-c1ccccc1 [(bp), tert-butyl (2-((4-(4-(3-(3-(tert-butyl)-1-phenyl-1H-pyrazol-5-yl)ureido)-3-(methylthio)phenoxy)pyridin-2-yl)amino)-2-oxoethyl)(methyl)carbamate]	≥ 75%	+
CSc1cc(Oc2ccnc(NC(=O)OC(C)(C)C)c2)ccc1NC(=O)Nc1cc(C(C)(C)C)nn1-c1ccccc1 [(bi), tert-butyl N-[4-{4-[(5-tert-butyl-2-phenyl-pyrazol-3-yl)carbamoylamino]-3-methylsulfanyl-phenoxy}-2-pyridyl]carbamate]	≥ 75%	++
CSc1cc(Oc2ccnc3[nH]c(=O)cnc23)ccc1NC(=O)Nc1cc(C(C)(C)C)nn1-c1ccccc1Cl [(at), 1-(3-(tert-butyl)-1-(2-chlorophenyl)-1H-pyrazol-5-yl)-3-(2-(methylthio)-4-((3-oxo-3,4-dihydropyrido[2,3-b]pyrazin-8-yl)oxy)phenyl)urea]	≥ 75%	++
CSc1cc(Oc2ccnc3nccnc23)ccc1NC(=O)Nc1cc(C(C)(C)C)nn1-c1ccccc1 [(bs), 1-(3-(tert-butyl)-1-phenyl-1H-pyrazol-5-yl)-3-(2-(methylthio)-4-(pyrido[2,3-b]pyrazin-8-yloxy)phenyl)urea]	≥ 75%	++
O=C(Nc1ccc(Oc2ccnc3[nH]c(=O)cnc23)cc1F)Nc1cc(C2(C(F)(F)F)CC2)nn1-c1ccccc1 [(d), 1-(2-fluoro-4-((3-oxo-3,4-dihydropyrido[2,3-b]pyrazin-8-yl)oxy)phenyl)-3-(1-phenyl-3-(1-(trifluoromethyl)cyclopropyl)-1H-pyrazol-5-yl)urea]	50 to 75%	+
CSc1cc(Oc2ccnc(NC(=O)OCc3ccccc3)c2)ccc1NC(=O)Nc1cc(C(C)(C)C)nn1-c1ccccc1 [(cx), Benzyl (4-(4-(3-(3-(tert-butyl)-1-phenyl-1H-pyrazol-5-yl)ureido)-3-(methylthio)phenoxy)pyridin-2-yl)carbamate]	≥ 75%	+
CC(C)c1cc(NC(=O)Nc2ccc(Oc3ccnc4[nH]c(=O)cnc34)cc2F)n(-c2ccccc2)n1 [(b), 1-(2-fluoro-4-((3-oxo-3,4-dihydropyrido[2,3-b]pyrazin-8-yl)oxy)phenyl)-3-(3-isopropyl-1-phenyl-1H-pyrazol-5-yl)urea]	25 to 50%	++
CSc1cc(Oc2ccnc3[nH]c(=O)cnc23)ccc1NC(=O)Nc1cc(C(C)(C)C)nn1-c1ccc(CN(C)C)cc1 [(dp), 1-(3-(tert-butyl)-1-(4-((dimethylamino)methyl)phenyl)-1H-pyrazol-5-yl)-3-(2-(methylthio)-4-((3-oxo-3,4-dihydropyrido[2,3-b]pyrazin-8-yl)oxy)phenyl)urea]	≥ 75%	+
Cc1nc2c(Oc3ccc(NC(=O)Nc4cc(C(C)(C)C)nn4-c4ccccc4)c(F)c3)ccnc2c(=O)[nH]1 [(w), 1-(3-(tert-butyl)-1-phenyl-1H-pyrazol-5-yl)-3-(2-fluoro-4-((2-methyl-4-oxo-3,4-dihydropyrido[3,2-d]pyrimidin-8-yl)oxy)phenyl)urea]	50 to 75%	++
CC(C)(C)c1cc(NC(=O)Nc2ccc(Oc3ccnc4[nH]c(=O)cnc34)c(F)c2F)n(-c2ccccc2)n1 [(bo), 1-(3-(tert-butyl)-1-phenyl-1H-pyrazol-5-yl)-3-(2,3-difluoro-4-((3-oxo-3,4-dihydropyrido[2,3-b]pyrazin-8-yl)oxy)phenyl)urea]	≥ 75%	+
CC(C)(C)c1cc(NC(=O)Nc2ccc(Oc3ccnc4c3CCC(=O)N4)c3ccccc23)on1 [(dg), 1-(3-(tert-butyl)isoxazol-5-yl)-3-(4-((7-oxo-5,6,7,8-tetrahydro-1,8-naphthyridin-4-yl)oxy)naphthalen-1-yl)urea]	≥ 75%	+
CC(C)(C)c1cc(NC(=O)Nc2ccc(C(=O)c3ccncc3)cc2)n(-c2ccccc2)n1 [(cs), 1-(3-(tert-butyl)-1-phenyl-1H-pyrazol-5-yl)-3-(4-isonicotinoylphenyl)urea]	25 to 50%	+
CC(C)(C)c1cnc(NC(=O)Nc2ccc(Oc3ccnc4c3CCC(=O)N4)c3ccccc23)s1 [(cu), 1-(5-(tert-butyl)thiazol-2-yl)-3-(4-((7-oxo-5,6,7,8-tetrahydro-1,8-naphthyridin-4-yl)oxy)naphthalen-1-yl)urea]	≥ 75%	++
CC1(c2cc(NC(=O)Nc3ccc(Oc4ccnc5[nH]c(=O)cnc45)cc3F)n(-c3ccccc3)n2)COC1 [(f), 1-(2-fluoro-4-((3-oxo-3,4-dihydropyrido[2,3-b]pyrazin-8-yl)oxy)phenyl)-3-(3-(3-methyloxetan-3-yl)-1-phenyl-1H-pyrazol-5-yl)urea]	50 to 75%	++
